According to the supplement of paper PMC10307832:

Tests used:
Assay in all cases: relative viability (nuclei count vs DMSO), 5 days (fraction); higher = more cells survive
[1] = test system: ABC-1
Summary of the method: (§1)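 Relative viability equals treated-well nuclei counts divided by vehicle-well nuclei counts. Counts came from 4× images of lung cancer cell lines grown in 1536-well plates for 5 days after pin-tool dosing on the day after seeding. Dosing used one drug alone or a fixed anchor-drug dose plus five library-drug doses (not always all listed) in √10 steps, and values are medians of duplicate plates.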

[2] = test system: NCI-H727
Summary of the method: as §1

[3] = test system: LC-2-ad
Summary of the method: as §1

[4] = test system: H3255
Summary of the method: as §1

[5] = test system: NCI-H520
Summary of the method: as §1

[6] = test system: NCI-H1651
Summary of the method: as §1

[7] = test system: NCI-H1915
Summary of the method: as §1

[8] = test system: 201T
Summary of the method: as §1

[9] = test system: BEN
Summary of the method: as §1

[10] = test system: NCI-H596
Summary of the method: as §1

[11] = test system: NCI-H441
Summary of the method: as §1

Nc1ccn([C@@H]2O[C@H](CO)[C@@H](O)[C@@H]2O)c(=O)n1 [Cytarabine] + CCNC(=O)c1noc(-c2cc(C(C)C)c(O)cc2O)c1-c1ccc(CN2CCOCC2)cc1 [Luminespib] (partner 0.01 µM)
relative viability ([1]; first compound 0.005 µM): 0.732 | relative viability ([1]; first compound 0.01581 µM): 0.624 | relative viability ([1]; first compound 0.05 µM): 0.712 | relative viability ([1]; first compound 0.1581 µM): 0.381 | relative viability ([1]; first compound 0.5 µM): 0.281 | relative viability ([2]; first compound 0.005 µM): 0.22 | relative viability ([2]; first compound 0.01581 µM): 0.527 | relative viability ([2]; first compound 0.05 µM): 0.475 | relative viability ([2]; first compound 0.1581 µM): 0.341 | relative viability ([2]; first compound 0.5 µM): 0.309 | relative viability ([3]; first compound 0.005 µM): 0.892 | relative viability ([3]; first compound 0.01581 µM): 0.994 | relative viability ([3]; first compound 0.05 µM): 0.768 | relative viability ([3]; first compound 0.1581 µM): 0.636 | relative viability ([3]; first compound 0.5 µM): 0.478 | relative viability ([4]; first compound 0.005 µM): 0.98 | relative viability ([4]; first compound 0.01581 µM): 0.763 | relative viability ([4]; first compound 0.05 µM): 0.69 | relative viability ([4]; first compound 0.1581 µM): 0.662 | relative viability ([4]; first compound 0.5 µM): 0.554 | relative viability ([5]; first compound 0.005 µM): 0.218 | relative viability ([5]; first compound 0.01581 µM): 0.216 | relative viability ([5]; first compound 0.05 µM): 0.2 | relative viability ([5]; first compound 0.1581 µM): 0.233 | relative viability ([5]; first compound 0.5 µM): 0.223 | relative viability ([6]; first compound 0.005 µM): 0.751 | relative viability ([6]; first compound 0.01581 µM): 1.02 | relative viability ([6]; first compound 0.05 µM): 0.954 | relative viability ([6]; first compound 0.1581 µM): 0.705 | relative viability ([6]; first compound 0.5 µM): 0.262 | relative viability ([7]; first compound 0.005 µM): 0.622 | relative viability ([7]; first compound 0.01581 µM): 0.773 | relative viability ([7]; first compound 0.05 µM): 0.871 | relative viability ([7]; first compound 0.1581 µM): 0.486 | relative viability ([7]; first compound 0.5 µM): 0.435 | relative viability ([8]; first compound 0.005 µM): 1.09 | relative viability ([8]; first compound 0.01581 µM): 1.12 | relative viability ([8]; first compound 0.05 µM): 1.14 | relative viability ([8]; first compound 0.1581 µM): 0.982 | relative viability ([8]; first compound 0.5 µM): 0.974 | relative viability ([9]; first compound 0.005 µM): 0.178 | relative viability ([9]; first compound 0.01581 µM): 0.324 | relative viability ([9]; first compound 0.05 µM): 0.247 | relative viability ([9]; first compound 0.1581 µM): 0.178 | relative viability ([9]; first compound 0.5 µM): 0.122 | relative viability ([10]; first compound 0.005 µM): 0.933 | relative viability ([10]; first compound 0.01581 µM): 0.841 | relative viability ([10]; first compound 0.05 µM): 0.685 | relative viability ([10]; first compound 0.1581 µM): 0.548 | relative viability ([10]; first compound 0.5 µM): 0.388 | relative viability ([11]; first compound 0.005 µM): 0.283 | relative viability ([11]; first compound 0.01581 µM): 0.252 | relative viability ([11]; first compound 0.05 µM): 0.354 | relative viability ([11]; first compound 0.1581 µM): 0.266 | relative viability ([11]; first compound 0.5 µM): 0.271
